Legend:
Format in all cases: physicochemical
[1] = Analysis of active substance: preservative concentration before and after storage in VI-containing polymer solution; settings: for active-substance concentration, 0 d, RT: before storage; for active-substance concentration, 14 d, 40° C.: storage 14 d at 40° C.; for active-substance concentration, 28 d, 40° C.: storage 28 d at 40° C.; for active-substance concentration, 60 d 40° C.: storage 60 d at 40° C.
Method: Stability of Preservatives in VI-Containing Polymers:
The following stabilizers for VI-containing polymers (here: aqueous solution of a copolymer of vinylpyrrolidone and vinylimidazole) were tested.
MIT, BIT, CMIT, OIT, DCOIT and iodopropynyl butyl carbamate were determined by RP chromatography with UV detection after dilution of the sample to be tested. An RP18 column was used for this purpose, with an eluent composed of an acid-methanol mixture under isocratic conditions.

[2] = Iodine color number according to DIN 6162:2014-09
[3] = Physical stability; visual assessment (color, turbidity, phase separation); parameters: key: ++: no discernible change with respect to color, turbidity or phase separation; +: marginal change in color number, somewhat increased Tyndall effect but no turbidity; 0: easily discernible increase in color number and moderate turbidity−no phase separation; −: turbidity and change in color number readily discernible by visual assessment; −−: strong color change with strong turbidity and incipient phase separation
Text: Physical stability; visual assessment according to:
++=no discernible change with respect to color, turbidity or phase separation; +=marginal change in color number, somewhat increased Tyndall effect but no turbidity; 0=easily discernible increase in color number and moderate turbidity−no phase separation; − turbidity and change in color number readily discernible by visual assessment; −− strong color change with strong turbidity and incipient phase separation.
Before storage, all batches could be rated ++ (no turbidity or phase separation; no influence of the biocide on the color number of the product).

[4] = Polymer P5 (HP56) with stabilizer

benzalkonium chloride [BAC]
active-substance concentration, 0 d, RT ([1]; in Polymer P1): 1000 ppm | active-substance concentration, 14 d, 40° C. ([1]; in Polymer P1): 990 ppm | active-substance concentration, 28 d, 40° C. ([1]; in Polymer P1): 990 ppm | active-substance concentration, 60 d 40° C. ([1]; in Polymer P1): 970 ppm | active-substance concentration, 0 d, RT ([1]; in Polymer P2): 1000 ppm | active-substance concentration, 14 d, 40° C. ([1]; in Polymer P2): 990 ppm | active-substance concentration, 28 d, 40° C. ([1]; in Polymer P2): 990 ppm | active-substance concentration, 60 d 40° C. ([1]; in Polymer P2): 970 ppm | active-substance concentration, 0 d, RT ([1]; in Polymer P3): 1000 ppm | active-substance concentration, 14 d, 40° C. ([1]; in Polymer P3): 970 ppm | active-substance concentration, 28 d, 40° C. ([1]; in Polymer P3): 973 ppm | active-substance concentration, 60 d 40° C. ([1]; in Polymer P3): 967 ppm | active-substance concentration, 0 d, RT ([1]; in Polymer P4): 1000 ppm | active-substance concentration, 14 d, 40° C. ([1]; in Polymer P4): 1000 ppm | active-substance concentration, 28 d, 40° C. ([1]; in Polymer P4): 991 ppm | active-substance concentration, 60 d 40° C. ([1]; in Polymer P4): 977 ppm | active-substance concentration, 0 d, RT ([1]; in Polymer P5 (HP56)): 1000 ppm | active-substance concentration, 14 d, 40° C. ([1]; in Polymer P5 (HP56)): 990 ppm | active-substance concentration, 28 d, 40° C. ([1]; in Polymer P5 (HP56)): 90 ppm | active-substance concentration, 60 d 40° C. ([1]; in Polymer P5 (HP56)): 970 ppm | active-substance concentration, 0 d, RT ([1]; in Polymer P6): 1000 ppm | active-substance concentration, 14 d, 40° C. ([1]; in Polymer P6): 990 ppm | active-substance concentration, 28 d, 40° C. ([1]; in Polymer P6): 981 ppm | active-substance concentration, 60 d 40° C. ([1]; in Polymer P6): 976 ppm | active-substance concentration, 0 d, RT ([1]; in Polymer P7): 1000 ppm | active-substance concentration, 14 d, 40° C. ([1]; in Polymer P7): 988 ppm | active-substance concentration, 28 d, 40° C. ([1]; in Polymer P7): 985 ppm | active-substance concentration, 60 d 40° C. ([1]; in Polymer P7): 979 ppm | active-substance concentration, 0 d, RT ([1]; in Polymer P8): 1000 ppm | active-substance concentration, 14 d, 40° C. ([1]; in Polymer P8): 990 ppm | active-substance concentration, 28 d, 40° C. ([1]; in Polymer P8): 990 ppm | active-substance concentration, 60 d 40° C. ([1]; in Polymer P8): 970 ppm | active-substance concentration, 0 d, RT ([1]; in Polymer P9): 1000 ppm | active-substance concentration, 14 d, 40° C. ([1]; in Polymer P9): 990 ppm | active-substance concentration, 28 d, 40° C. ([1]; in Polymer P9): 985 ppm | active-substance concentration, 60 d 40° C. ([1]; in Polymer P9): 975 ppm | Iodine color number, 60 d 40° C. ([2]; Polymer P1 with stabilizer): 2.8 | Iodine color number, start ([2]; Polymer P1 with stabilizer): 2.6 | Iodine color number, 60 d 40° C. ([2]; Polymer P2 with stabilizer): 3.2 | Iodine color number, start ([2]; Polymer P2 with stabilizer): 3.0 | Iodine color number, 60 d 40° C. ([2]; Polymer P3 with stabilizer): 3.3 | Iodine color number, start ([2]; Polymer P3 with stabilizer): 3.2 | Iodine color number, 60 d 40° C. ([2]; Polymer P4 with stabilizer): 3.3 | Iodine color number, start ([2]; Polymer P4 with stabilizer): 3.2 | Iodine color number, 60 d 40° C. [2, 4]: 3.3 | Iodine color number, start [2, 4]: 3.3 | Iodine color number, 60 d 40° C. ([2]; Polymer P6 with stabilizer): 3.4 | Iodine color number, start ([2]; Polymer P6 with stabilizer): 3.3 | Iodine color number, 60 d 40° C. ([2]; Polymer P7 with stabilizer): 3.4 | Iodine color number, start ([2]; Polymer P7 with stabilizer): 3.3 | Iodine color number, 60 d 40° C. ([2]; Polymer P8 with stabilizer): 3.4 | Iodine color number, start ([2]; Polymer P8 with stabilizer): 3.3 | Iodine color number, 60 d 40° C. ([2]; Polymer P9 with stabilizer): 4.0 | Iodine color number, start ([2]; Polymer P9 with stabilizer): 3.7 | Physical stability, 60 d 40° C.* ([3]; Polymer P1 with stabilizer): + | Physical stability, 60 d 40° C.* ([3]; Polymer P2 with stabilizer): + | Physical stability, 60 d 40° C.* ([3]; Polymer P3 with stabilizer): ++ | Physical stability, 60 d 40° C.* ([3]; Polymer P4 with stabilizer): + | Physical stability, 60 d 40° C.* [3, 4]: + | Physical stability, 60 d 40° C.* ([3]; Polymer P6 with stabilizer): + | Physical stability, 60 d 40° C.* ([3]; Polymer P7 with stabilizer): ++ | Physical stability, 60 d 40° C.* ([3]; Polymer P8 with stabilizer): + | Physical stability, 60 d 40° C.* ([3]; Polymer P9 with stabilizer): +
